Test results as given in patent US20220299513A1, “IRF2 AS A PROGNOSTIC BIOMARKER AND TARGET FOR AUGMENTING IMMUNOTHERAPY” (University of Massachusetts, priority 2019, published 2022).

Assays:
[1] = test system: PD-L1 promoter in DC3.2 WT cells; experiment: ChIP-qPCR of IRF1/IRF2 binding to the PD-L1 promoter after IFNγ stimulation; type: cell-based, mouse; conditions: 2 ng/mL IFNγ for 2 hrs
Protocol: (§1) FIGS. 5A-E. IRF2-IRF1 balance. (A) Normalized MFI of surface MHC I and PD-L1 levels on the indicated single or double (IRF1+IRF2, double knock out (DKO)) DC3.2 knockout lines after overnight incubation with either media alone or 2 ng/mL IFNγ; bars represent mean+SEM (N≥3); (B) Western blot for IRF1 and IRF2 (and β-actin as loading control) in the DC3.2 knockout lines in the absence or presence of 2 ng/mL IFNγ for the durations indicated; (C) ChIP-qPCR of DC3.2 WT cells stimulated with ±2 ng/mL IFNγ for 2 hrs for TAP2 (top), ERAP1 (middle), or PD-L1 (bottom) DNA with rabbit anti-IRF2 IgG, rabbit anti-IRF1 IgG, or normal rabbit IgG (control). Bars represent mean +SEM fold enrichment (2^^-ΔCt) over the normal rabbit IgG control IP (N=2); (d, e) Heatmap of genes differentially expressed between the DC knockout lines (D) at baseline or (E) after stimulation with ±2 ng/mL IFNγ for 2 hrs. For clarity, only a few genes are shown. Statistical analysis by two-tailed ratio paired t-tests. *p<0.05, **p<0.01, ***p<0.001, ****p<0.0001, ns=not significant.
It is well-established that IRF1 can promote IFNγ-inducible activation of PD-L1^27,28. […]
ChIP procedure generally followed the Thermo Fisher ChIP protocol. […] Chromatin was sheared by sonication for 20 min and fragment size (˜300 bp) was determined by gel electrophoresis. […]

[2] = test system: surface PD-L1 on A549 cells; experiment: Surface PD-L1 on IFNγ-stimulated A549 (flow cytometry); type: cell-based, human; conditions: overnight IFNγ stimulation
Source text: (§2) FIGS. 6A-J. IRF2 and cancer. (A) Differential IRF2 expression in tumor and normal tissue from patients with the indicated cancer types (TCGA abbreviations), as queried from TIMER^29; (B) IRF2 mRNA expression in patient NSCLC specimens scored as PD-L1 low (1-50%) or high (>50%) by immunohistochemistry. IRF2 mRNA expression was normalized to GAPDH mRNA expression in each lung specimen and then IRF2 expression across specimens was compared by calculating fold changes over the lowest IRF2-expressing specimen, which was set equal to 1. Statistical analysis by Mann-Whitney U test, **p<0.01; (C) TAP2 (top) and ERAP1 (bottom) mRNA correlations with IRF2 mRNA in NSCLC specimens. Linear regression models shown with R^2 for goodness of fit. (D-E) Geometric MFI of surface MHC I (left) and PD-L1 (right) on (D) unstimulated or (E) overnight IFNγ-stimulated A549 lines knocked out for IRF2 (“IRF2 KO”) or control (“WT”) or overexpressing IRF2 or empty vector (EV) as control. Bars represent mean +SEM (N=3). Statistical analysis by two-tailed ratio paired t-tests. *p<0.05, **p<0.01, ***p<0.001; (F) Geometric MFI of surface MHC-I and PD-L1 on unstimulated or IFNγ-stimulated human breast carcinoma (BT20 and MCF7) lines knocked out for IRF2 (“IRF2 KO”) or control (“WT”). […] After 4 hours, specific killing was quantified by flow cytometry. […]

[3] = test system: surface MHC-I on A549 cells; experiment: Surface MHC-I on IFNγ-stimulated A549 (flow cytometry); type: cell-based, human; conditions: overnight IFNγ stimulation
Source text: as §2

[4] = test system: surface MHC-I on IRF2-KO DC3.2; experiment: Surface MHC-I on IRF2-KO DC3.2 after interferon stimulation (flow cytometry); type: cell-based, mouse
Protocol: as §1
FIGS. 10A-B. (A) Normalized MFI of surface MHC I and PD-L1 levels on DC3.2 stable knockout lines after overnight incubation with 5,000 U/mL IFNα; bars represent mean+SEM (N=3). Statistical analysis by two-tailed ratio paired t-tests. […]

[5] = test system: IRF2 mRNA in F221 murine sarcoma cells; experiment: IRF2 mRNA levels by qPCR in drug-treated F221 cells; type: cell-based; conditions: Vorinostat 1 uM or 5 uM, Decitabine 5 uM, 24 hrs, vs DMSO control
Protocol: (§3) FIGS. 13A-B. (A) IRF2 & TAP2 mRNA levels, and MHC I surface protein levels in […] murine sarcoma cells treated with Vorinostat (1 uM or 5 uM), Decitabine (5 uM), or control diluent (DMSO) with no drug; (B) surface expression of MHC I on […] MCA-sarcoma cells treated with Vorinostat (5 uM) and/or Decitabine (5 uM). RNA was extracted from cell lines using the RNeasy kit (Qiagen) or from formalin-fixed paraffin-embedded non-small cell lung cancers using the RNeasy FFPE kit (Qiagen) and reverse transcribed to cDNA using EcoDry pre-mix random hexamers (Clontech). 50 ng cDNA were used per well (done in triplicate) with indicated TaqMan probes (Applied Biosystems), according to the manufacturer's instructions. The TaqMan probes used were as follows: We tested two epigenetic modifiers on an IRF2low, MHC I low murine cancer cell line ([…] MCA-sarcoma). […] murine sarcoma cells were treated with Vorinostat (1 uM or 5 uM), Decitabine (5 uM), or control diluent (DMSO) with no drug for 24 hrs and then assayed for IRF2 and TAP2 mRNA levels by qPCR and MHC I protein levels by flow cytometry.

[6] = test system: surface MHC I (H-2Kb) on F221 MCA-sarcoma cells; experiment: Surface MHC I protein levels by flow cytometry in drug-treated F221 cells; type: cell-based; conditions: F221 murine sarcoma cells; Vorinostat 1 uM or 5 uM, Decitabine 5 uM; 24 hrs; vs DMSO control
Source text: Where indicated, mouse cells were blocked with 2.4G2 and stained for surface MHC class I levels with anti-K^b-APC (eBioscience, AF6-88.5.5.3), MHC class II levels with anti-I^A/I^E-PECy7 (BioLegend, M5/114.15.2), PD-L1 levels with anti-PD-L1-PE (BioLegend, 10F.9G2), or with isotype controls (eBioscience mouse IgG2a-APC eBM2a, eBioscience rat IgG2b κ-PE eB149) at 1:200 dilutions.
We tested two epigenetic modifiers on an IRF2low, MHC I low murine cancer cell line (F221 MCA-sarcoma). F221 murine sarcoma cells were treated with Vorinostat (1 uM or 5 uM), Decitabine (5 uM), or control diluent (DMSO) with no drug for 24 hrs and then assayed for IRF2 and TAP2 mRNA levels by qPCR and MHC I protein levels by flow cytometry.
In addition, F221 MCA-sarcoma cells were treated with a combination of Vorinostat (5 uM) and/or Decitabine (5 uM) for 24 hrs and then surface expression of MEW I molecules were quantified by flow cytometry.

[7] = test system: TAP2 mRNA in F221 murine sarcoma cells; experiment: TAP2 mRNA levels by qPCR in drug-treated F221 cells; type: cell-based; conditions: Vorinostat 1 uM or 5 uM, Decitabine 5 uM, 24 hrs, vs DMSO control
Protocol: as §3

## IFNγ: interferon gamma used to stimulate cells (mouse IFNγ 2 ng/mL for DC3.2)
[1]
  IRF1 binding to the PD-L1 promoter: increased IRF1 binding
  IRF2 binding to the PD-L1 promoter: decreased IRF2 binding
[2]
  surface PD-L1 expression: augmented
[3]
  surface MHC-I expression: augmented
[4]; overnight incubation with 2 ng/mL IFNγ
  surface MHC-I expression in the IRF2-KO DC3.2: restored

## O=C(CCCCCCC(=O)Nc1ccccc1)NO [Vorinostat, Suberoylanilide hydroxamic acid]
[5]
  expression of IRF2 mRNA: increased
[6]
  surface MHC I (H-2Kb) protein levels: increased
[7]
  mRNA for IRF2's target gene, TAP2: increased

## IFNα
[4]; overnight incubation with 5,000 U/mL IFNα
  surface MHC-I expression in the IRF2-KO DC3.2: restored
